These compounds were tested against Xanthine dehydrogenase/oxidase (Bos taurus, UniProt P80457) (assay: XO inhibitory assay). Conditions: pH 7.5; 25 °C.
Experimental: The reaction mixture contained 1.5 mL of 50 mM potassium phosphate buffer (pH 7.5), 1 mL test sample solutions (5, 10, 25, 50, and 100 µM) was dissolved in DMSO, 0.5 mL of XO enzyme solution (0.2 units/mL of xanthine oxidase in phosphate buffer). The reaction mixture was pre-incubated at room temperature for 15 min, followed by the addition of 1 mL of substrate solution (0.10 mM of xanthine). The mixture was further incubated at room temperature for 30 min and stopped with the addition of 1 mL of 1 M HCl.

Sequence of Xanthine dehydrogenase/oxidase (P80457 whole entry): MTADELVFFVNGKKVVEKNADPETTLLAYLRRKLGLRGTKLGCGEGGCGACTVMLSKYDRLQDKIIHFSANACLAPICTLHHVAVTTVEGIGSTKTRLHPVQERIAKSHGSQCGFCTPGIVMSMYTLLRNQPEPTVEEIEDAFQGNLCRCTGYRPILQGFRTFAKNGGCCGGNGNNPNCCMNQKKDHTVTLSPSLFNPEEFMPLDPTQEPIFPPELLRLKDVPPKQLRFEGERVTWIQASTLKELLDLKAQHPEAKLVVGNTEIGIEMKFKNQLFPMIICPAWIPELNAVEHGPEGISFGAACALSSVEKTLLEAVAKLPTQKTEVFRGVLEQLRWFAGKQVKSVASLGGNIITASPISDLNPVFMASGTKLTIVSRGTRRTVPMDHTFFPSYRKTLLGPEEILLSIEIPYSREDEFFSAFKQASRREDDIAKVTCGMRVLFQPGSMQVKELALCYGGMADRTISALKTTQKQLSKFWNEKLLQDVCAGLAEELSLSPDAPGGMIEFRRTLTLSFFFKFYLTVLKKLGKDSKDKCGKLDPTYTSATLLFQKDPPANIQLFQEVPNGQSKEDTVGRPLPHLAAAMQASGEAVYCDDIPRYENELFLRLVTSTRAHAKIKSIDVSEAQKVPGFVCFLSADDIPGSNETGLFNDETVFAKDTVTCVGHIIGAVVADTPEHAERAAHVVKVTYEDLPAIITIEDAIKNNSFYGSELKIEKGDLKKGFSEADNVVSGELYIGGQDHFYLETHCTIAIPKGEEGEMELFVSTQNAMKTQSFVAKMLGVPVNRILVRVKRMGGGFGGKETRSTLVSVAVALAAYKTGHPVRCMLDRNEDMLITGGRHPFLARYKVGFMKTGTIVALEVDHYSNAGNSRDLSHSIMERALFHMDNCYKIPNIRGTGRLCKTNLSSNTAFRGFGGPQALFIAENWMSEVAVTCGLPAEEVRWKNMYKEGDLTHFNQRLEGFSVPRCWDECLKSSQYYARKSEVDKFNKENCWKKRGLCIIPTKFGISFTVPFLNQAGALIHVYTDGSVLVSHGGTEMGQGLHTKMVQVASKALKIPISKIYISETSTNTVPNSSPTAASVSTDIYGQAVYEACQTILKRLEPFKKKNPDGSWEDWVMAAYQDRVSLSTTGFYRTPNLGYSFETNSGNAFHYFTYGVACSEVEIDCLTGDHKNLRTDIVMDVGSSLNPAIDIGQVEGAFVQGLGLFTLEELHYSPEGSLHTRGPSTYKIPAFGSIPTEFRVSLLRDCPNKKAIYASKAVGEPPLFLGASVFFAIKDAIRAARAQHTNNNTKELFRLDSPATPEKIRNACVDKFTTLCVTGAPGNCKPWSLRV

SMILES	IC50 [µM]
Nc1ccccc1-c1cc(-c2ccccc2)n[nH]1	41.7
Oc1c(Cl)cc(Cl)cc1C1Nc2ccccc2-c2cc(-c3ccccc3)nn21 (centres undefined) [2,4‐dichloro‐6‐{2‐phenyl‐5H,6H‐pyrazolo[1,5‐ c]quinazolin‐5‐yl}phenol (6g)]	11
COc1ccc(C2Nc3ccccc3-c3cc(-c4ccccc4)nn32)cc1OC (centres undefined) [5‐(3,4‐dimethoxyphenyl)‐2‐phenyl‐5H,6H‐ pyrazolo[1,5‐c]quinazoline (6e)]	43.6
O=[N+]([O-])c1cccc(C2Nc3ccccc3-c3cc(-c4ccccc4)nn32)c1 (centres undefined) [5‐(3‐nitrophenyl)‐2‐phenyl‐5H,6H‐pyrazolo[1,5‐ c]quinazoline (6h)]	20.9

Reference: BindingDB's records for doi:10.1016/j.bioorg.2014.08.007 (Central University of Punjab, 2014)
